Measurements reported in US9232799B2, “N-[(het)arylethyl)] pyrazole(thio)carboxamides and their heterosubstituted analogues” (BAYER INTELLECTUAL PROPERTY GMBH, priority 2010, dated 2016).
Several values for one entry are separate records, joined by “and”; a condition that tells them apart may be missing. Identical values can stand only once. Like-named read-outs stand apart in the source and are kept apart here.

How the values were obtained:
[1] = logP by HPLC on reversed-phase column (C 18), EEC Directive 79/831 Annex V.A8; assay type: physicochemical
Procedure: In table 1, the logP values were determined in accordance with EEC Directive 79/831 Annex V.A8 by HPLC (High Performance Liquid Chromatography) on a reversed-phase column (C 18), using the method described below: Temperature: 40° C.; […]

Pyrenophora teres = assay: In vivo preventive test on Pyrenophora teres (barley); settings: 500 ppm of active ingredient, evaluated 7-9 days after inoculation
Description: One day after this treatment, the plants are inoculated with an aqueous spore suspension of Pyrenophora teres.

Alternaria solani = assay: In vivo preventive test on Alternaria solani (tomato); settings: evaluated 7 days after inoculation
Description: One day after this treatment, the plants are inoculated with an aqueous spore suspension of Alternaria solani.

Row | Structure (SMILES) | logP [1] | further results
1 | Cn1nc(C(F)F)c(C(=O)N(CCc2ccccn2)C2CCCC2)c1F [Example 176] | 1.29 | –
2 | Cn1nc(C(F)F)c(C(=O)NCC(C)(C)c2ccccc2Cl)c1F [Example 45] | 3.27 | Efficacy (Pyrenophora teres): 100%; Efficacy (Alternaria solani; 500 ppm of active ingredient): 90%
3 | Cn1nc(C(F)F)c(C(=S)NCCc2ccc(Cl)cc2Cl)c1Cl [Example 72] | 4.11 | Efficacy (Pyrenophora teres): 100%; Efficacy (Alternaria solani; 500 ppm of active ingredient): 94%
4 | COCCN(CCc1ccccn1)C(=O)c1c(C(F)F)nn(C)c1F [Example 177] | 0.50 | –
5 | CC(Cc1c(Cl)cccc1Cl)N(C(=O)c1c(C(F)F)nn(C)c1Cl)C1CC1 (stereo not shown) [Example 116] | 4.29 | Efficacy (Pyrenophora teres): 100%; Efficacy (Alternaria solani; 500 ppm of active ingredient): 100%
6 | COc1ccc(CCN(C)C(=O)c2c(C(F)F)nn(C)c2Cl)cc1OC [Example 131] | 2.18 | –
7 | Cn1nc(C(F)F)c(C(=S)N(C2CC2)C2CCCCC2(C)c2ccccc2)c1F (mixture of isomers) [Example 219] | – | logP ([1]; HPLC on reversed-phase column (C 18), 40° C., 0.1% aqueous formic acid and acetonitrile, linear gradient 10% to 90% acetonitrile): 5.01 and 5.11
8 | CN(CCc1ccc(C(C)(C)C)cc1)C(=O)c1c(C(F)F)nn(C)c1Cl [Example 139] | 3.96 | Efficacy (Pyrenophora teres): 90%; Efficacy (Alternaria solani; 500 ppm of active ingredient): 90%
9 | CN(CC(=O)c1ccc(Cl)cc1)C(=O)c1c(C(F)F)nn(C)c1Cl [Example 62] | 2.68 | –
10 | Cn1nc(C(F)F)c(C(=O)NCC(C)(C)c2cccc(Cl)c2)c1F [Example 53] | 3.31 | Efficacy (Pyrenophora teres): 94%; Efficacy (Alternaria solani; 500 ppm of active ingredient): 70%
11 | CC(C)N(CCc1ccc(F)cc1)C(=O)c1c(C(F)F)nn(C)c1F [Example 23] | 3.23 | –
12 | Cc1cc(C)c(CCN(C)C(=O)c2c(C(F)F)nn(C)c2Cl)c(C)c1 [Example 137] | 3.67 | Efficacy (Alternaria solani; 500 ppm of active ingredient): 90%
13 | Cc1cc(C)c(CCN(C(=O)c2c(C(F)F)nn(C)c2F)C(C)C)c(C)c1 [Example 134] | 4.30 | –
14 | Cn1nc(C(F)F)c(C(=O)N(CCc2ccccc2)C2CCCC2)c1Cl [Example 6] | 3.89 | –
15 | CC(Cc1cccc(Cl)c1)NC(=O)c1c(C(F)F)nn(C)c1Cl (stereo not shown) [Example 48] | 3.17 | Efficacy (Pyrenophora teres): 100%; Efficacy (Alternaria solani; 500 ppm of active ingredient): 95%
16 | CC(Cc1c(F)cccc1F)N(C(=O)c1c(C(F)F)nn(C)c1Cl)C1CC1 (stereo not shown) [Example 27] | 3.57 | Efficacy (Pyrenophora teres): 95%; Efficacy (Alternaria solani; 500 ppm of active ingredient): 95%
17 | Cn1nc(C(F)F)c(C(=O)NCC(C)(C)c2cccc(Oc3ccccc3)c2)c1Cl [Example 149] | 4.15 | –
18 | Cn1nc(C(F)F)c(C(=O)NCC(C)(C)c2cc(Cl)cc(Cl)c2)c1F [Example 113] | 3.87 | Efficacy (Pyrenophora teres): 90%; Efficacy (Alternaria solani; 500 ppm of active ingredient): 80%
19 | Cn1nc(C(F)F)c(C(=O)N(CCc2ccccc2)CC(F)(F)F)c1F [Example 5] | 3.25 | Efficacy (Pyrenophora teres): 80%
20 | CC(C)N(CCc1ccccc1)C(=O)c1c(C(F)F)nn(C)c1Cl [Example 7] | 3.35 | –
21 | Cn1nc(C(F)F)c(C(=O)NCCc2cccc(Oc3ccccc3)c2)c1Cl [Example 145] | 3.55 | Efficacy (Alternaria solani; 500 ppm of active ingredient): 95%
22 | Cn1nc(C(F)F)c(C(=O)N(CCc2ccccc2)CC(F)(F)F)c1Cl [Example 10] | 3.39 | –
23 | Cn1nc(C(F)F)c(C(=O)NCC(C)(C)c2ccc(Cl)cc2)c1Cl [Example 64] | 3.58 | Efficacy (Alternaria solani; 500 ppm of active ingredient): 100%

Row | Structure (SMILES) | logP [1] | further results
24 | COc1ccc(CCN(C(=O)c2c(C(F)F)nn(C)c2F)C2CCCCC2)cc1OC [Example 130] | 3.42 | –
25 | Cn1nc(C(F)F)c(C(=O)NCC(C)(C)c2cccc(Oc3ccccc3)c2)c1F [Example 148] | 3.92 | –
26 | Cn1nc(C(F)F)c(C(=O)NCC(C)(C)c2cc(Cl)cc(Cl)c2)c1Cl [Example 114] | 4.01 | Efficacy (Pyrenophora teres): 80%
27 | Cn1nc(C(F)F)c(C(=S)NCC(C)(C)c2ccc(Cl)cc2Cl)c1Cl [Example 89] | 4.72 | Efficacy (Pyrenophora teres): 100%
28 | Cn1nc(C(F)F)c(C(=O)N(CCc2ccccn2)C2CCCCC2)c1F [Example 175] | 1.48 | –
29 | COc1ccc(CCN(C(=O)c2c(C(F)F)nn(C)c2Cl)C2CCCCC2)cc1OC [Example 132] | 3.53 | –
30 | Cn1nc(C(F)F)c(C(=O)NC2CCCCC2c2ccccc2)c1F (stereo not shown) [Example 213] | 3.29 | Efficacy (Alternaria solani; 500 ppm of active ingredient): 89%
31 | Cn1nc(C(F)F)c(C(=O)NC(C)(C)Cc2cccc(Oc3ccccc3)c2)c1Cl [Example 144] | 4.30 | Efficacy (Alternaria solani; 500 ppm of active ingredient): 95%
32 | CCN(CCc1ccc(Cl)cc1)C(=S)c1c(C(F)F)nn(C)c1F [Example 58] | 3.92 | Efficacy (Pyrenophora teres): 100%
33 | COC(CNC(=O)c1cn(C)nc1C(F)F)c1ccc(Cl)cc1Cl (stereo not shown) [1.02 from WO-2008/148570, N-[2-(2,4-dichlorophenyl)-2-methoxyethyl]-3-(difluoromethyl)-1-methyl-1H-pyrazole-4-carboxamide, reference compound] | – | Efficacy (Alternaria solani; 100 ppm of active ingredient): 40%; Efficacy (Alternaria solani; 100 ppm of active ingredient, listed as 1.02): less than 40%; Efficacy (Alternaria solani; 500 ppm of active ingredient): 80%; Efficacy (Alternaria solani; 500 ppm of active ingredient, listed as 1.02): at least 80%
34 | CC(C)N(CCc1ccccc1)C(=O)c1c(C(F)F)nn(C)c1F [Example 2] | 3.19 | –
35 | Cn1nc(C(F)F)c(C(=O)NCC(C)(C)c2ccc(Oc3ccccc3)cc2)c1F [Example 157] | 4.06 | Efficacy (Pyrenophora teres): 80%
36 | CC(C)N(CCc1ccc(F)cc1)C(=O)c1c(C(F)F)nn(C)c1Cl [Example 25] | 3.37 | –
37 | Cn1nc(C(F)F)c(C(=O)NCC(C)(C)c2cccc(Cl)c2)c1Cl [Example 54] | 3.53 | –
38 | Cc1cc(C)c(CCN(C(=O)c2c(C(F)F)nn(C)c2Cl)C(C)C)c(C)c1 [Example 136] | 4.49 | –
39 | CCN(C(=O)c1c(C(F)F)nn(C)c1Cl)C(C)C(=O)c1ccccc1 (stereo not shown) [Example 18] | 2.71 | –
40 | Cn1nc(C(F)F)c(C(=O)NCC(C)(C)c2ccccc2Cl)c1Cl [Example 46] | 3.48 | Efficacy (Alternaria solani; 500 ppm of active ingredient): 70%
41 | Cn1nc(C(F)F)c(C(=O)N(CCC#N)CCc2ccccc2)c1F [Example 3] | 2.39 | –
42 | Cn1nc(C(F)F)c(C(=O)NCC(C)(C)c2ccc(Oc3ccccc3)cc2)c1Cl [Example 158] | 4.21 | Efficacy (Alternaria solani; 500 ppm of active ingredient): 80%
43 | Cn1nc(C(F)F)c(C(=O)N(CCC#N)CCc2ccccc2)c1Cl [Example 8] | 2.53 | –
44 | Cn1nc(C(F)F)c(C(=O)NCCc2ccccc2Oc2ccccc2)c1Cl [Example 141] | 3.64 | Efficacy (Alternaria solani; 500 ppm of active ingredient): 80%
45 | Cn1nc(C(F)F)c(C(=O)N(CCc2ccccc2)C2CCCC2)c1F [Example 1] | 3.69 | –

Continued, in another order:

Row | logP [1] | Structure (SMILES) | further results
46 | 4.11 | Cn1nc(C(F)F)c(C(=S)NC[Si](C)(C)c2ccccc2Cl)c1F [Example 234] | Efficacy (Pyrenophora teres): 100%; Efficacy (Alternaria solani; 500 ppm of active ingredient): 70%
47 | 0.78 | CC(C)N(CCc1ccncc1)C(=O)c1c(C(F)F)nn(C)c1F [Example 198] | –
48 | 0.63 | COCCN(CCc1ccccn1)C(=O)c1c(C(F)F)nn(C)c1Cl [Example 184] | –
49 | 1.70 | Cc1cccnc1CC(NC(=O)c1c(C(F)F)nn(C)c1Cl)C(F)(F)F (stereo not shown) [Example 186] | –
50 | 1.78 | Cn1nc(C(F)F)c(C(=O)NCCc2ccc(Cl)nc2)c1F [Example 197] | –
51 | 4.51 | Cn1nc(C(F)F)c(C(=O)N(C[Si](C)(C)c2ccc3ccccc3c2)C2CC2)c1Cl [Example 246] | –
52 | 3.15 | Cn1nc(C(F)F)c(C(=O)NC2CC2c2ccccc2C(F)(F)F)c1Cl (stereo not shown) [Example 226] | –
53 | 2.75 | Cn1nc(C(F)F)c(C(=O)NC2CC2c2cccc(F)c2)c1Cl (stereo not shown) [Example 223] | –
54 | 1.90 | Cn1nc(C(F)F)c(C(=O)NCCc2ccc(Cl)nc2)c1Cl [Example 196] | –
55 | 1.56 | COCCN(CCc1ccncc1)C(=O)c1c(C(F)F)nn(C)c1F [Example 199] | –
56 | 2.60 | Cn1nc(C(F)F)c(C(=O)NCCc2c(F)c(F)nc(F)c2F)c1Cl [Example 209] | –
57 | 1.40 | Cn1nc(C(F)F)c(C(=O)N(CCc2ccccn2)C2CCCC2)c1Cl [Example 181] | –
58 | 3.33 | Cn1nc(C(F)F)c(C(=O)NC2CCCCC2c2ccccc2)c1Cl (stereo not shown) [Example 214] | –
59 | 1.60 | CC(CN(C)C(=O)c1c(C(F)F)nn(C)c1F)c1ccncc1 (stereo not shown) [Example 206] | –
60 | 4.74 | Cn1nc(C(F)F)c(C(=S)NC[Si](C)(C)c2ccc(Cl)cc2Cl)c1F [Example 241] | Efficacy (Pyrenophora teres): 100%
61 | 1.32 | Cn1nc(C(F)F)c(C(=O)N(CCc2ccncc2)C2CCCC2)c1Cl [Example 204] | –
62 | 0.85 | CC(C)N(CCc1ccccn1)C(=O)c1c(C(F)F)nn(C)c1F [Example 178] | –
63 | 0.98 | CC(C)N(CCc1ccncc1)C(=O)c1c(C(F)F)nn(C)c1Cl [Example 205] | –
64 | 1.00 | CC(C)N(CCc1ccccn1)C(=O)c1c(C(F)F)nn(C)c1Cl [Example 182] | –
65 | 1.39 | Cn1nc(C(F)F)c(C(=O)N(CCc2ccncc2)C2CCCCC2)c1F [Example 200] | –
66 | 1.63 | CN(CCc1ccccn1)C(=O)c1c(C(F)F)nn(C)c1Cl [Example 183] | –
67 | 2.75 | Cn1nc(C(F)F)c(C(=O)NC2CC2c2ccc(F)cc2)c1Cl (stereo not shown) [Example 221] | –
68 | 1.47 | CN(CCc1ccccn1)C(=O)c1c(C(F)F)nn(C)c1F [Example 179] | –
69 | 1.20 | Cn1nc(C(F)F)c(C(=O)N(CCc2ccncc2)C2CCCC2)c1F [Example 201] | –
70 | 1.50 | Cn1nc(C(F)F)c(C(=O)N(CCc2ccncc2)C2CCCCC2)c1Cl [Example 203] | –
71 | 1.58 | Cn1nc(C(F)F)c(C(=O)N(CCc2ccccn2)C2CCCCC2)c1Cl [Example 180] | –
